Measured values from US7348440B2, “Mitotic kinesin inhibitors” (Merck & Co., Inc., priority 2002, dated 2008).
pIC50: −log10 of the molar value. Like-named read-outs stand apart in the source and are kept apart here.

Target: T1, human KSP motor domain (KSP(367H)) (Homo sapiens, UniProt P52732)
T1 construct: were used to amplify the motor domain and the neck linker region; made in house; host or cells: E. coli BL21 (DE3), pRSETa vector
T1 sequence (P52732 18-359 limits assumed): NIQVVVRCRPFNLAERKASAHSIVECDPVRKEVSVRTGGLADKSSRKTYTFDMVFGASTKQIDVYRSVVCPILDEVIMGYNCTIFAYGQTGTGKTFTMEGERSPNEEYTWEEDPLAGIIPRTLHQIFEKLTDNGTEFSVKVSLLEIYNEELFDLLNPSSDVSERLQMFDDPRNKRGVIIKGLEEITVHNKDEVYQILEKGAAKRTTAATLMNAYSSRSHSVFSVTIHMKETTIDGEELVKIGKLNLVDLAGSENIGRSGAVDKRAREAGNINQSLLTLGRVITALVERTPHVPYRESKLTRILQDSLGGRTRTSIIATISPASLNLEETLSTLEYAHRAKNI
Experiment: Kinesin ATPase In Vitro Assay
Type: biochemical
Protocol: I. Kinesin ATPase In Vitro Assay
The N-terminal primer 5′-[…] (SEQ.ID.NO.: 1) and the C-terminal primer 5′-[…] […] (SEQ.ID.NO.: 2) were used to amplify the motor domain and the neck linker region. The PCR products were digested with AseI and XhoI, ligated into the NdeI/XhoI digestion product of pRSETa (Invitrogen) and transformed into E. coli BL21 (DE3).
Cells were grown at 37° C. to an OD600 of 0.5. After cooling the culture to room temperature expression of KSP was induced with 100 μM IPTG and incubation was continued overnight. Cells were pelleted by centrifugation and washed once with ice-cold PBS. Pellets were flash-frozen and stored −80° C.
Cell pellets were thawed on ice and resuspended in lysis buffer (50 mM K-HEPES, pH 8.0, 250 mM KCl, 0.1% Tween, 10 mM imidazole, 0.5 mM Mg-ATP, 1 mM PMSF, 2 mM benzimidine, 1× complete protease inhibitor cocktail (Roche)). Cell suspensions were incubated with 1 mg/ml lysozyme and 5 mM β-mercaptoethanol on ice for 10 minutes, followed by sonication (3×30 sec). All subsequent procedures were performed at 4° C. Lysates were centrifuged at 40,000×g for 40 minutes. Supernatants were diluted and loaded onto an SP Sepharose column (Pharmacia, 5 ml cartridge) in buffer A (50 mM K-HEPES, pH 6.8, 1 mM MgCl2, 1 mM EGTA, 10 μM Mg-ATP, 1 mM DTT) and eluted with a 0 to 750 mM KCl gradient in buffer A. Fractions containing KSP were pooled and incubated with Ni-NTA resin (Qiagen) for one hour. The resin was washed three times with buffer B (Lysis buffer minus PMSF and protease inhibitor cocktail), followed by three 15-minute incubations and washes with buffer B. Finally, the resin was incubated and washed for 15 minutes three times with buffer C (same as buffer B except for pH 6.0) and poured into a column. KSP was eluted with elution buffer (identical to buffer B except for 150 mM KCl and 250 mM imidazole). KSP-containing fractions were pooled, made 10% in sucrose, and stored at −80° C.
Microtubules are prepared from tubulin isolated from bovine brain. Purified tubulin (>97% MAP-free) at 1 mg/ml is polymerized at 37° C. in the presence of 10 μM paclitaxel, 1 mM DTT, 1 mM GTP in BRB80 buffer (80 mM K-PIPES, 1 mM EGTA, 1 mM MgCl2 at pH 6.8). The resulting microtubules are separated from non-polymerized tubulin by ultracentrifugation and removal of the supernatant. The pellet, containing the microtubules, is gently resuspended in 10 μM paclitaxel, 1 mM DTT, 50 μg/ml ampicillin, and 5 μg/ml chloramphenicol in BRB80.
The kinesin motor domain is incubated with microtubules, 1 mM ATP (1:1 MgCl2: Na-ATP), and compound at 23° C. in buffer containing 80 mM K-HEPES (pH 7.0), 1 mM EGTA, 1 mM DTT, 1 mM MgCl2, and 50 mM KCl. The reaction is terminated by a 2-10 fold dilution with a final buffer composition of 80 mM HEPES and 50 mM EDTA (or, alternately, with a 1:1 addition of reaction volume to stop buffer(1.8M KCl and 50 mM EDTA)). Free phosphate from the ATP hydrolysis reaction is measured via a quinaldine red/ammonium molybdate assay by adding a 1.5 times volume of quench C (e.g., to a mixture of 40 μl reaction volume+40 μl stop buffer is then added 120 μl quench C). […] Quench C is a 2:1 ratio of quench A:quench B The reaction is incubated for 5-10 minutes at 23° C., and the absorbance of the phospho-molybdate complex is measured at 540 nm.

[1] = kinesin motor domain incubated with microtubules, 1 mM ATP and compound at 23° C., free phosphate by quinaldine red/ammonium molybdate, absorbance 540 nm, read-out: IC50

Row | pIC50 [1] | SMILES | pIC50
1 | ≥ 4.30 | NCCS(=O)(=O)N1CC(c2cc(F)ccc2F)=CC1c1ccccc1 (stereo not shown) [7-2, 2-{[4-(2,5-difluorophenyl)-2-phenyl-2,5-dihydro-1H-pyrrol-1-yl]sulfonyl}ethanamine] | 
2 | ≥ 4.30 | CC(C)(C)OC(=O)N1CC(OS(=O)(=O)C(F)(F)F)=C[C@H]1c1ccccc1 [compound 54, (2S)-tert-butyl 2-phenyl-4-{[(trifluoromethyl)sulfonyl]oxy}-2,5-dihydro-1H-pyrrole-1-carboxylate] | 
3 |  | CN(C(=O)N1CC(c2cc(F)ccc2F)=C[C@H]1c1ccccc1)C1CCNCC1 [18-4, (2S)-4-(2,5-Difluorophenyl)-N-methyl-2-phenyl-N-piperidin-4-yl-2,5-dihydro-1H-pyrrole-1-carboxamide] | ≥ 4.30
4 | ≥ 4.30 | CN(CC1CCNCC1)C(=O)N1CC(c2cc(F)ccc2F)=C[C@H]1c1ccccc1 [18a-6, (2S)-4-(2,5-Difluorophenyl)-N-methyl-2-phenyl-N-(piperidin-4-ylmethyl)-2,5-dihydro-1H-pyrrole-1-carboxamide] | 
5 | ≥ 4.30 | [C-]#[N+]c1ccc(F)c(C2=CC(c3ccccc3)N(C(=O)N(C)C)C2)c1 (stereo not shown) [13-1, 4-(2-fluoro-5-isocyanophenyl)-N,N-dimethyl-2-phenyl-2,5-dihydro-1H-pyrrole-1-carboxamide] | 
6 | ≥ 4.30 | CN(C)C(=O)N1CC(c2cc(F)ccc2Cl)=CC1c1ccccc1 (stereo not shown) [1-6, 4-(2-chloro-5-fluorophenyl)-N,N-dimethyl-2-phenyl-2,5-dihydro-1H-pyrrole-1-carboxamide] | 
7 | ≥ 4.30 | CN(C(=O)N1CC(c2cc(Cl)ccc2F)=C[C@H]1c1ccccc1)[C@@H]1CCNC1 [18b-8, (2S)-4-(5-Chloro-2-fluorophenyl)-N-methyl-2-phenyl-N-[(3R)-pyrrolidin-3-yl]-2,5-dihydro-1H-pyrrole-1-carboxamide] | 
8 | ≥ 4.30 | CN(C)CCS(=O)(=O)N1CC(c2cc(F)ccc2F)=CC1c1ccccc1 (stereo not shown) [8-2, 2-{[4-(2,5-difluorophenyl)-2-phenyl-2,5-dihydro-1H-pyrrol-1-yl]sulfonyl}-N,N-dimethylethanamine] | 
9 | ≥ 4.30 | CC(C)(N)C(=O)N1CC(c2cc(F)ccc2F)=CC1c1ccccc1 (stereo not shown) [12-1, 1-[4-(2,5-difluorophenyl)-2-phenyl-2,5-dihydro-1H-pyrrol-1-yl]-2-methyl-1-oxopropan-2-amine] | 
10 | ≥ 4.30 | CC(C)(O)C(=O)N1CC(c2cc(F)ccc2F)=CC1c1ccccc1 (stereo not shown) [11-1, 1-[4-(2,5-difluorophenyl)-2-phenyl-2,5-dihydro-1H-pyrrol-1-yl]-2-methyl-1-oxopropan-2-ol] | 
11 | ≥ 4.30 | CCS(=O)(=O)C(C)CN1CC(c2cc(F)ccc2F)=C[C@H]1c1ccccc1 (single isomer, unassigned) [38-1] | 
12 | ≥ 4.30 | CC(=O)N1CC(c2cc(F)ccc2F)=CC1c1ccccc1 (stereo not shown) [9-1, 1-acetyl-4-(2,5-difluorophenyl)-2-phenyl-2,5-dihydro-1H-pyrrole] | 
13 | ≥ 4.30 | CN(C)C(=O)N1CC(c2cc(C(F)(F)F)ccc2F)C=C1c1ccccc1 (stereo not shown) [3-2, 3-[2-fluoro-5-(trifluoromethyl)phenyl]-N,N-dimethyl-5-phenyl-2,3-dihydro-1H-pyrrole-1-carboxamide] | 
